{
  "source": "paper PMC6220849",
  "about": "“Mechanistic and structural studies of KDM‐catalysed demethylation of histone 1 isotype 4 at lysine 26” (Febs Letters, 2018)",
  "assay_type_in_all_cases": "biochemical, human",
  "key": {"KDM4E (KDM4E1–337)": {"tested_on": "KDM4E (KDM4E1–337)", "assay": "MALDI-TOF MS demethylation activity assay, KDM4E", "parameters": "key: 🟢: Indicates that clear demethylation activity was observed; 🟡: Indicates that low level demethylation activity was observed (<10% conversion after 1 h); 🔴: Indicates no activity under the stated conditions (1 μM KDM, 10 μM peptide); 🟡*: *Indicates demethylation activity was only observed with 5 μM KDM", "settings": "peptide as substrate, 1 μM KDM, 10 μM peptide, 50 mM HEPES pH 7.5, Fe(II) 10 μM, ascorbate 100 μM, 2OG 200 μM, 1 h at 37 °C", "experimental": "(§1) Recombinant proteins (1 μM) were incubated with peptides (10 μM, sequences are given in Table S1) in 50 mM HEPES, pH 7.5 with addition of Fe(II) ammonium sulfate (10 μM), sodium ascorbate (100 μM) and 2‐oxoglutaric acid (200 μM). Reactions with KDM3A and KDM7A also contained 1 mM tris(2‐carboxyethyl)phosphine hydrochloride. No enzyme reactions were included as negative controls. Reactions were incubated for 1 h at 37 °C before being quenched with 1 : 1 (v/v) methanol. Analysis was carried out by MALDI‐TOF MS (Bruker, Billerica, MA, USA), with demethylation observed as mass shifts of 14 Da.\n(§2) The propensity of human JmjC KDMs to catalyse demethylation at H1.4K26 was investigated using recombinant forms of the catalytic domains of representatives of each human JmjC KDM subfamily (KDM2‐7) and fragment peptides (Table S1) 37. Three peptides with identical sequences, corresponding to residues 18–32 of histone H1.4 (H2N‐[…]‐CONH2), but containing either a N ^ε‐tri‐, di‐ or monomethyllysine at K26 were synthesised (Fig. 1B and Table S1). Activity assays monitoring JmjC KDM‐catalysed demethylation of the peptides were then carried out; samples were prepared containing each peptide, 2‐oxoglutarate (2OG), ferrous iron, ascorbate and individual representatives from each JmjC KDM subfamily (KDM2A 38, KDM3A 21, KDM4E 22, KDM5C 39, 40, KDM6B 41, KDM7A 42)."}, "KDM4D (KDM4D1–359)": {"tested_on": "KDM4D (KDM4D1–359)", "assay": "MALDI-TOF MS demethylation activity assay, KDM4D", "parameters": "key: 🟢: Indicates that clear demethylation activity was observed; 🟡: Indicates that low level demethylation activity was observed (<10% conversion after 1 h); 🔴: Indicates no activity under the stated conditions (1 μM KDM, 10 μM peptide); 🟡*: *Indicates demethylation activity was only observed with 5 μM KDM", "settings": "peptide as substrate, 1 μM KDM, 10 μM peptide, 50 mM HEPES pH 7.5, Fe(II) 10 μM, ascorbate 100 μM, 2OG 200 μM, 1 h at 37 °C", "experimental": "as §1\n(§3) Given the activity observed with KDM4E and KDM7A, we decided to investigate the intra‐subfamily conservation of this demethylation activity. The demethylation activity of the other subfamily members (KDM4A‐D and KDM7B) was therefore screened. […] Note that as with H3K9, demethylation of the monomethylated H1.4K26 peptide was only observed with KDM4E, under the stated conditions 24."}, "KDM7B (PHF8; KDM7B1–447)": {"tested_on": "KDM7B (PHF8; KDM7B1–447)", "assay": "MALDI-TOF MS demethylation activity assay, KDM7B (PHF8)", "parameters": "key to demethylation activity on methylated H1.4 peptide: 🟢: Indicates that clear demethylation activity was observed; 🟡: Indicates that low level demethylation activity was observed (<10% conversion after 1 h); 🔴: Indicates no activity under the stated conditions (1 μM KDM, 10 μM peptide); 🟡*: *Indicates demethylation activity was only observed with 5 μM KDM", "settings": "peptide as substrate; MALDI-TOF MS; 1 μM KDM (* = only with 5 μM KDM), 10 μM peptide, 50 mM HEPES pH 7.5, Fe(II) 10 μM, ascorbate 100 μM, 2OG 200 μM, 1 h at 37 °C", "experimental": "as §1, §3\n(§4) N ^ε‐Trimethylated H3K4 binds to the plant homeobox domain of KDM7B, targeting the N ^ε‐dimethyllysine at H3K9 to the catalytic domain, and thus promoting demethylation 29, 44. To test whether similar targeting may occur with H1.4, promoting activity at H1.4K26, an H1.4 peptide was synthesised containing di‐N ^ε‐methyllysine at K26 and tri‐N ^ε‐methyllysine at K21 (i.e. at the equivalent position in the sequence to K4 in the H3 peptide, Fig. 1B, Table S1). Monomethylation at H1.4K21 has previously been observed by proteomic mass spectrometry 45. With the aim of enhancing activity, the enzyme concentration was increased from 1 μM to 5 μM, and time course analyses were conducted with both KDM7A and KDM7B, both with the new peptide (H1.4(18–32)K21me3K26me2) and the H1.4 peptides methylated only at K26 (Fig. 2B). […] Thus, it appears unlikely that N ^ε‐trimethylation at H1.4K21 promotes demethylation at H1.4K26 by KDM7B."}, "KDM4C (KDM4C1–359)": {"tested_on": "KDM4C (KDM4C1–359)", "assay": "MALDI-TOF MS demethylation activity assay, KDM4C", "parameters": "key: 🟢: Indicates that clear demethylation activity was observed; 🟡: Indicates that low level demethylation activity was observed (<10% conversion after 1 h); 🔴: Indicates no activity under the stated conditions (1 μM KDM, 10 μM peptide); 🟡*: *Indicates demethylation activity was only observed with 5 μM KDM", "settings": "peptide as substrate, 1 μM KDM, 10 μM peptide, 50 mM HEPES pH 7.5, Fe(II) 10 μM, ascorbate 100 μM, 2OG 200 μM, 1 h at 37 °C", "experimental": "as §1, §3"}, "KDM2A (KDM2A1–557)": {"tested_on": "KDM2A (KDM2A1–557)", "assay": "MALDI-TOF MS demethylation activity assay, KDM2A", "parameters": "key: 🟢: Indicates that clear demethylation activity was observed; 🟡: Indicates that low level demethylation activity was observed (<10% conversion after 1 h); 🔴: Indicates no activity under the stated conditions (1 μM KDM, 10 μM peptide); 🟡*: *Indicates demethylation activity was only observed with 5 μM KDM", "settings": "peptide as substrate, 1 μM KDM, 10 μM peptide, 50 mM HEPES pH 7.5, Fe(II) 10 μM, ascorbate 100 μM, 2OG 200 μM, 1 h at 37 °C", "experimental": "as §1, §2"}, "KDM7A (KDM7A38–480)": {"tested_on": "KDM7A (KDM7A38–480)", "assay": "MALDI-TOF MS demethylation activity assay, KDM7A", "parameters": "key to demethylation activity on methylated H1.4 peptide: 🟢: Indicates that clear demethylation activity was observed; 🟡: Indicates that low level demethylation activity was observed (<10% conversion after 1 h); 🔴: Indicates no activity under the stated conditions (1 μM KDM, 10 μM peptide); 🟡*: *Indicates demethylation activity was only observed with 5 μM KDM", "settings": "peptide as substrate; MALDI-TOF MS; 1 μM KDM, 10 μM peptide, 50 mM HEPES pH 7.5, Fe(II) 10 μM, ascorbate 100 μM, 2OG 200 μM, 1 mM TCEP, 1 h at 37 °C", "experimental": "as §1, §2, §4"}, "KDM4B (KDM4B1–359)": {"tested_on": "KDM4B (KDM4B1–359)", "assay": "MALDI-TOF MS demethylation activity assay, KDM4B", "parameters": "key: 🟢: Indicates that clear demethylation activity was observed; 🟡: Indicates that low level demethylation activity was observed (<10% conversion after 1 h); 🔴: Indicates no activity under the stated conditions (1 μM KDM, 10 μM peptide); 🟡*: *Indicates demethylation activity was only observed with 5 μM KDM", "settings": "peptide as substrate, 1 μM KDM, 10 μM peptide, 50 mM HEPES pH 7.5, Fe(II) 10 μM, ascorbate 100 μM, 2OG 200 μM, 1 h at 37 °C", "experimental": "as §1, §3"}, "KDM5C (KDM5C1–765)": {"tested_on": "KDM5C (KDM5C1–765)", "assay": "MALDI-TOF MS demethylation activity assay, KDM5C", "parameters": "key: 🟢: Indicates that clear demethylation activity was observed; 🟡: Indicates that low level demethylation activity was observed (<10% conversion after 1 h); 🔴: Indicates no activity under the stated conditions (1 μM KDM, 10 μM peptide); 🟡*: *Indicates demethylation activity was only observed with 5 μM KDM", "settings": "peptide as substrate, 1 μM KDM, 10 μM peptide, 50 mM HEPES pH 7.5, Fe(II) 10 μM, ascorbate 100 μM, 2OG 200 μM, 1 h at 37 °C", "experimental": "as §1, §2"}},
  "note": "Square brackets hold non-standard residues; d marks the D form. Ends that are not written are not given here. Lys(Me3) = C[N+](C)(C)CCCC[C@H](N)C(=O)O",
  "data": [
    {"substance": "TPVKKKAR[Lys(Me3)]SAGAAK [H1.4(18–32)K26me3, peptide of residues 18–32 of histone H1.4 with N ε-trimethyllysine at K26]", "values": [
      {"measurement": "demethylation activity on methylated H1.4 peptide", "setting": "KDM4E (KDM4E1–337)", "result": "🟢"},
      {"measurement": "demethylation activity on methylated H1.4 peptide", "setting": "KDM4D (KDM4D1–359)", "result": "🟢"},
      {"measurement": "demethylation activity on methylated H1.4 peptide", "setting": "KDM7B (PHF8; KDM7B1–447)", "result": "🔴"},
      {"measurement": "demethylation activity on methylated H1.4 peptide", "setting": "KDM4C (KDM4C1–359)", "result": "🟢"},
      {"measurement": "demethylation activity on methylated H1.4 peptide", "setting": "KDM2A (KDM2A1–557)", "result": "🔴"},
      {"measurement": "demethylation activity on methylated H1.4 peptide", "setting": "KDM7A (KDM7A38–480)", "result": "🔴"},
      {"measurement": "demethylation activity on methylated H1.4 peptide", "setting": "KDM4B (KDM4B1–359)", "result": "🟢"},
      {"measurement": "demethylation activity on methylated H1.4 peptide", "setting": "KDM5C (KDM5C1–765)", "result": "🔴"}
    ]}
  ]
}
